{
  "source": "patent US8822486B2",
  "about": "“Spiropiperidine compounds” (Eli Lilly and Company, priority 2009, dated 2014)",
  "key": {"Male Balb/c mice": {"system": "Male Balb/c mice", "assay": "Intraperitoneal Glucose Tolerance Test (IPGTT)", "format": "in vivo, mouse", "details": "oral", "procedure": "To examine the ability of exemplified compounds to activate GPR40 in-vivo resulting in anti-diabetic efficacy, i.e. an increase in insulin and reduction in glucose levels, a 4-day intraperitoneal glucose tolerance test (ipGTT) study is completed with each compound tested in the IPGTT.\nMale Balb/c (Albino mice) mice (8-9 weeks of age) are single housed and fed with normal rodent chow diet and water ad libitum. Animals are weighed and randomized by body weight and daily body weights are recorded. Upon study initiation, animals are dosed once per day orally for three days using a formulation carrying methylcellulose and tween-80. On the night before the 4-day IPGTT study, animals are fasted overnight in clean cages. On the morning of the IPGTT (Day 4), animals are dosed orally with compound or vehicle alone 60 minutes prior to the IPGTT (glucose 2 g/kg, i.p.). Blood glucose levels are determined from tail bleeds taken at 0, 3, 7, 15, 30, and 60 min after glucose challenge. Plasma is isolated and used to estimate respective insulin levels. The blood glucose excursion profile from t=0 to t=60 min is used to integrate an area under the curve (AUC) for each treatment. Percent lowering in glucose is calculated from the AUC data of the compounds with respect to the AUC of vehicle group. The test compound is orally administered at 0.1, 0.3, 1.0, 3.0, or 10 mg/kg, and a positive control is administered at 10 mg/kg."}, "PPARγ": {"target": "T1, PPARγ (Homo sapiens, UniProt P37231)", "T1 sequence (P37231 1-505)": "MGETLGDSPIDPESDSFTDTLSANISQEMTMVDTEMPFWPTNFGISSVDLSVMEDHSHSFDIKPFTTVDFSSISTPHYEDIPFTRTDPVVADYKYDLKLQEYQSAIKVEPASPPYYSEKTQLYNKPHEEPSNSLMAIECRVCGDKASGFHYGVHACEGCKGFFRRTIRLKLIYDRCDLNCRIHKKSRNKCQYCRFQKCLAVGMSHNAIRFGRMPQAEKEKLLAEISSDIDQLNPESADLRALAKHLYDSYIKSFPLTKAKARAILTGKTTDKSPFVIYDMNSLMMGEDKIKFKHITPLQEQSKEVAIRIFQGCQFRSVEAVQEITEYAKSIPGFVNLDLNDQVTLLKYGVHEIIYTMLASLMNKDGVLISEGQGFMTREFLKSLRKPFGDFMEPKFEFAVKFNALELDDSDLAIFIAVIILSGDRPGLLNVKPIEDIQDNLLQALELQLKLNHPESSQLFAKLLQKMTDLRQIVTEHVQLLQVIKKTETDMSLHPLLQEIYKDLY", "T1 sequence (P19793 1-462 partner)": "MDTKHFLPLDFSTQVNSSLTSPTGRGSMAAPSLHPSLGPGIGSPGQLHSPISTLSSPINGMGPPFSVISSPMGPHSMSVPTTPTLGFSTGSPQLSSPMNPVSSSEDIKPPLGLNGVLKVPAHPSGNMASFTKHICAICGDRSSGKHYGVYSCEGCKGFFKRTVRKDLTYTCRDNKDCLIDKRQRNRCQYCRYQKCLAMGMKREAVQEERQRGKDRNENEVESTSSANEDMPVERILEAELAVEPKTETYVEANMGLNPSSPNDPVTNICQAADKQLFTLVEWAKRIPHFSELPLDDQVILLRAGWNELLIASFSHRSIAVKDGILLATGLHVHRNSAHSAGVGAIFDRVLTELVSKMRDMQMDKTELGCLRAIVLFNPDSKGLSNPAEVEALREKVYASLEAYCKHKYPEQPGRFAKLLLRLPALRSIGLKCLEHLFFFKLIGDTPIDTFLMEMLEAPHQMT", "assay": "PPARγ binding assay (SPA)", "set-up": "made in house; host or cells: HEK293 (cell lysates)", "details": "concentrations up to 10 μM", "procedure": "Because GPR40 is known to be activated by ligands to PPARγ exemplified compounds are examined in PPARα, PPARδ, and PPARγ binding and functional assays to determine the selectivity of exemplified compounds for GPR40. Compounds exemplified herein are tested essentially as described below for PPAR binding and generally have binding values greater than 1000 nM with 10 μM concentrations of test compound and are thus considered negative for PPAR activity.\nBinding affinities of compounds for the PPAR α, δ, and γ receptors are assessed using Scintillation Proximity Assay (SPA) technology. Biotinylated oligonucleotide Direct Repeat 2 (DR2) is used for binding the receptors to Yttrium silicate streptavidin-coated SPA beads. […] Non-specific binding is determined in the presence of 10,000 nM of the unlabeled PPAR α/δ dual agonist reference compound for the alpha and delta receptor assays and the PPARγ agonist reference compound for the gamma receptor assay. The binding reaction (100 μl per well in a 96 well [Costar 3632] plate) is incubated for 10 h and counted disintegration per minutes (dpm) on a Wallac Microbeta. Receptor binding affinity (IC50) for the compounds is determined by fitting an 11 point concentration-response curve with a 4-paramater logistic equation. K, is determined from the IC50 using the Cheng-Prussoff equation and Kd determined by saturation binding. […]"}, "[1]": {"details": "Example 1 at 0.1, 0.3, 1.0 and 3.0 mg/kg, positive control 10 mg/kg"}},
  "data": [
    {"smiles": "CC#C[C@@H](CC(=O)O)c1ccc(OCc2ccc(CN3CCC4(C=Cc5ccccc54)CC3)s2)cc1", "note": "[Example 1, (3S)-3-[4-[[5-(Spiro[indene-1,4′-piperidine]-1′-ylmethyl)-2-thienyl]methoxy]phenyl]hex-4-ynoic acid]", "values": [
      {"measurement": "ED50", "setting": "Male Balb/c mice; Mus musculus, once per day, 4-day study, glucose 2 g/kg i.p., AUC t=0 to 60 min, read-out: ED50 based on AUCs for glucose lowering", "result": 0.21, "unit": "mg/kg"},
      {"measurement": "glucose levels at the 3 minute time point", "setting": "Male Balb/c mice; Example 1 0.1, 0.3, 1.0, 3.0 or 10 mg/kg, positive control 10 mg/kg", "result": "No concentration of the compound of Example 1 or the positive control significantly lowered glucose levels"},
      {"measurement": "glucose levels at the 15 minute time point", "setting": "Male Balb/c mice; Example 1 at 0.1, 0.3, 1.0 and 3.0 mg/kg", "result": "significantly lowered"},
      {"measurement": "glucose levels at the 30 minute time point", "setting": "Male Balb/c mice; [1]", "result": "significantly lowered"},
      {"measurement": "glucose levels at the 60 minute time point", "setting": "Male Balb/c mice; [1]", "result": "significantly lowered"},
      {"measurement": "glucose levels at the 7 minute time point", "setting": "Male Balb/c mice; Example 1 at 0.3, 1.0, 3.0 and 10 mg/kg, positive control 10 mg/kg", "result": "significantly lowered"},
      {"measurement": "insulin levels", "setting": "Male Balb/c mice; at the 3.0 and 10.0 mg/kg dose", "result": "significantly elevated"},
      {"measurement": "PPARγ binding", "setting": "PPARγ", "result": "no binding is detected"}
    ]}
  ]
}
